SMILES strings stand for the structures. Activity calls are given as the source filed them. Rule as the data show it, for most assays here: actives have a measured EC50 and inactives only a lower limit.

Assay [1] is described as follows: Trypanosoma cruzi growth suppression in host cells – NIH3T3 host cells, beta-gal luminescence, confirmation (AID 2044).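 Also: intracellular parasites grown in NIH/3T3 mouse fibroblasts as host cells; luminescent beta-galactosidase reporter signal from transgenic T. cruzi replicating inside host cells; inhibitors lower the luminescence signal.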 The format is functional, cell-based.
Assay [2] is described as follows: NIH3T3 cell viability loss – ATP luminescence, mouse fibroblasts, counter-screen, dose response (AID 2010).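 Also: cells exposed to compound for about 90 hours before reading.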 The format is functional, cell-based. For orientation: Counterscreens check selectivity or assay interference.
The target of assay [3] is Cytochrome P450 3A4 (Homo sapiens, UniProt P08684).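 Also: CYP3A4 tested as one member of a cytochrome P450 panel screen.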
Cytochrome P450 3A4, sequence (P08684 whole entry): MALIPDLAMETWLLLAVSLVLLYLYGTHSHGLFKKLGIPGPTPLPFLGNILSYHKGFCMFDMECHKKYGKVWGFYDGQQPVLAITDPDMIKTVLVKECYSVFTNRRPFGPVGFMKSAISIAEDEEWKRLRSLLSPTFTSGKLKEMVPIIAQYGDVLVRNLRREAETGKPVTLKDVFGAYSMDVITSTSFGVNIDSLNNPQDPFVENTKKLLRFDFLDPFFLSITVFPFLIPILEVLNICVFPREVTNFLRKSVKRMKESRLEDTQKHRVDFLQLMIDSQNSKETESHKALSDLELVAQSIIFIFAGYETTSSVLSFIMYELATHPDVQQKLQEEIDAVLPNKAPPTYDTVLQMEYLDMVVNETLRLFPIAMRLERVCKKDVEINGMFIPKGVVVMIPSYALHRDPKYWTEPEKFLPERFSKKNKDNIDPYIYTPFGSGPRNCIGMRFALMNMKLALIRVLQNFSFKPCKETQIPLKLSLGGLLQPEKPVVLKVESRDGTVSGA

As a reminder, the EC50 is the concentration that produces a half-maximal response. For the compound `Cc1[nH]c2ccc(-c3nnc(SCC(=O)N4CCCc5ccccc54)o3)cc2c1C`, the EC50 is 0.782 µM (active) in assay [1] and > 60 µM (not active) in assay [2].

Regarding `Clc1ccc(CSc2nnc(-c3ccncc3)s2)cc1`, the EC50 in assay [1] is 2.14 µM (active); in assay [2] it was 26.3 µM (active).

For `Cc1cc(C)c2c(N)c(C(=O)c3ccccc3Cl)sc2n1`, the EC50 in assay [1] is 0.1 µM (active); in assay [2] it was > 60 µM (not active).

Regarding `Cn1c(C(=O)OC(C(=O)NC2CCCC2)c2cccnc2)cc2sccc21` (stereo not given), the EC50 in assay [1] was 0.489 µM (active); in assay [2], > 60 µM (not active).

For the compound `CCN1CCN(c2ccc(S(=O)(=O)N3CCOCC3)cc2NC(=O)CCOc2ccccc2)CC1`, the EC50 in assay [1] is 1.26 µM (active); in assay [2], > 60 µM (not active).

Usually AC50 stands for the midpoint of the concentration-response curve, whichever way the signal moves. In the case of `CO[C@@H]1COC(=O)C/C=C\[C@@H](C)COC(=O)[C@H](Cc2ccccc2)NC(=O)C/C=C\[C@H]1C`, in assay [3], the AC50 is 1.58 µM (inconclusive).

As to `Cc1ccc(NC2CCCN(C(=O)CSc3ccncc3)C2)cc1C` (stereo not given), the EC50 in assay [1] was 0.294 µM (active); in assay [2], > 60 µM (not active).

Take `COc1cc2c(cc1OC)[C@@H]1Cc3ccc(OC)c(OC)c3CN1CC2`: the EC50 in assay [1] and in assay [2] was > 60 µM (not active) in each case.

In the case of `Cc1ccc(Cl)cc1N1CCN(CC(=O)Nc2ccc(CN3CCCCC3)cc2)CC1`, the figures for the EC50 in assay [1] and in assay [2] were 1.31 µM (active) and > 60 µM (not active), respectively.

For the compound `Cc1cccc(CSc2nc3c(cc2C#N)CN(C)CC3)c1`, the 50% effective concentration (EC50) was 0.156 µM (active) in assay [1] and > 30 µM (not active) in assay [2].

For `Cc1nn(CC(O)COc2ccc3c(c2)CCC3)c(C)c1Br` (stereo not given), in assay [3], the half-maximal activity concentration (AC50) was 15.8 µM (inconclusive).

As for `Cc1cccc2sc(N(CCN(C)C)C(=O)C3CCN(S(=O)(=O)c4cccs4)CC3)nc12`, the figures for the concentration for a half-maximal effect (EC50) in assay [1] and in assay [2] were 0.24 µM (active) and > 60 µM (not active), respectively.

On to `COc1ccc(CNN2CCCCC2C(=O)Nc2ccc(OC)c(OCC(C)C)c2)cc1OC` (stereo not given), for which the concentration giving a half-maximal response (EC50) in assay [1] and in assay [2] was > 60 µM (not active) in each case.

Turning to `Cc1nc2c(ccc3nc(NC(=O)c4ccc5c(c4)OCCO5)sc32)s1`, the EC50 was 3.07 µM (active) in assay [1] and > 30 µM (not active) in assay [2].

`COc1ccc(C(=O)N2CCC3(CCCN(Cc4nccs4)C3)CC2)cc1`: the AC50 in assay [3] was 7.94 µM (inconclusive).

In the case of `Cc1nc(-c2ccncc2)nc(NCCNc2ncccc2C(F)(F)F)c1Cl`, the values for the EC50 in assay [1] and in assay [2] were 0.364 µM (active) and > 60 µM (not active), respectively.

Regarding `Cc1ccc(NC(=O)CCSc2nnc3ccccn23)cc1`, the AC50 in assay [3] is 0.891 µM (inconclusive).

Take `O=C(C[n+]1c2n(c3ccc(C(F)(F)F)cc31)CCCCC2)c1ccc2c(c1)OCCO2`: the half-maximal effective concentration (EC50) was 1.3 µM (active) in assay [1] and > 60 µM (not active) in assay [2].

Regarding `O=C(CSc1nnc(-c2ccc(F)cc2)c2ccccc12)Nc1cccc(Cl)c1`, the EC50 was 2.16 µM (active) in assay [1] and > 30 µM (not active) in assay [2].

For the compound `CN1CCN(CCCc2c3c(cc4c2CCC4)CCC3)CC1`, the results for the EC50 in assay [1] and in assay [2] were 0.601 µM (active) and > 60 µM (not active), respectively.

As to `CCOC(=O)c1sc2ncnc(N3CCN(CC)CC3)c2c1C`, the values for the concentration for a half-maximal effect (EC50) in assay [1] and in assay [2] were 0.577 µM (active) and > 60 µM (inconclusive), respectively.

As to `c1cncc(-c2nc(NCc3ccc4c(c3)OCO4)c3ccccc3n2)c1`, the 50% effective concentration (EC50) was 0.921 µM (active) in assay [1] and > 30 µM (not active) in assay [2].

Regarding `CN(C)c1ncc2nc(-c3ccc(F)cc3)c(=O)n(Cc3cccs3)c2n1`, the AC50 in assay [3] is 25.1 µM (inconclusive).

As to `Cc1ccc(S(=O)(=O)Nc2cccc(C(=O)NC3CCN(Cc4ccccc4)CC3)c2)cc1F`, the EC50 was 1.12 µM (active) in assay [1] and > 60 µM (not active) in assay [2].

Consider `NC(=O)c1c(NC(=O)CCCn2cnc([N+](=O)[O-])n2)sc2c1CCCC2`, for which the results for the concentration giving a half-maximal response (EC50) in assay [1] and in assay [2] were 0.125 µM (active) and > 60 µM (not active), respectively.

These data come from ChEMBL document CHEMBL1201862, “PubChem BioAssay data set” (2004).
